Test results taken from ChEMBL document CHEMBL1136853, “Synthesis and SAR of vinca alkaloid analogues” (Bioorg Med Chem Lett, 2009).

Assays:
P388 [1] = assay: Antitumor activity against mouse P388 cells xenografted in mouse assessed as median life span at 3 mg/kg, ip q4d for 3 days measured for 60 days; format: functional; conditions: route intraperitoneal
HeLa = assay: Cytotoxicity against human HeLa cells; format: functional
MCF7 = assay: Cytotoxicity against human MCF7 cells; format: functional
P388 [2] = assay: Antitumor activity against mouse P388 cells xenografted in mouse assessed as median life span at 6 mg/kg, ip q4d for 3 days measured for 60 days; format: functional; conditions: route intraperitoneal
[3] = Toxicity to mouse assessed as mortality at 12 mg/kg, ip q4d for 3 days; format: organism-based; set-up: dose 12 mg/kg, route intraperitoneal; conditions: in vivo, read-out: Activity
P388 [4] = assay: Antitumor activity against mouse P388 cells xenografted in mouse assessed as median life span at 12 mg/kg, ip q4d for 3 days measured for 60 days; format: functional; conditions: route intraperitoneal
P388 [5] = assay: Antitumor activity against mouse P388 cells xenografted in mouse assessed as median life span at 4 mg/kg, ip q4d for 3 days measured for 60 days; format: functional; conditions: route intraperitoneal
P388 [6] = assay: Antitumor activity against mouse P388 cells xenografted in mouse assessed as median life span at 8 mg/kg, ip q4d for 3 days measured for 60 days; format: functional; conditions: route intraperitoneal
P388 [7] = assay: Antitumor activity against mouse P388 cells xenografted in mouse assessed as median life span at 2 mg/kg, ip q4d for 3 days measured for 60 days; format: functional; conditions: route intraperitoneal

Structure (SMILES) | GI50 (HeLa) [nM] | GI50 (MCF7) [nM] | further results
CC[C@]1(O)C[C@H]2CN(CCc3c([nH]c4ccc(C)cc34)[C@@](C(=O)OC)(c3cc4c(cc3OC)N(C)[C@H]3[C@@](O)(C(=O)OC)[C@H](OC(C)=O)[C@]5(CC)CC=CN6CC[C@]43[C@@H]65)C2)C1 | 0.3 | 0.3 | T/C (P388 [1]): 133%; T/C (P388 [2]): 181%
CCC1=C[C@@H]2CN(C1)Cc1c([nH]c3ccccc13)[C@@](C(=O)OC)(c1cc3c(cc1OC)N(C)[C@H]1[C@@](O)(C(=O)OC)[C@H](OC(C)=O)[C@]4(CC)C=CCN5CC[C@]31[C@@H]54)C2 [VINORELBINE] | 2.7 | 2.4 | mortality at 72 h [3]: > 10%; T/C (P388 [2]): 114%; T/C (P388 [4]): 117%
CC[C@]1(O)C[C@H]2CN(CCc3c([nH]c4ccc(SC)cc34)[C@@](C(=O)OC)(c3cc4c(cc3OC)N(C)[C@H]3[C@@](O)(C(=O)OC)[C@H](OC(C)=O)[C@]5(CC)CC=CN6CC[C@]43[C@@H]65)C2)C1 | 0.6 | 2 | T/C (P388 [5]): 110%; T/C (P388 [6]): 243%
CCC1=C[C@H]2CN(C1)Cc1c([nH]c3ccc(SC)cc13)[C@@](C(=O)OC)(c1cc3c(cc1OC)N(C)[C@H]1[C@@](O)(C(=O)OC)[C@H](OC(C)=O)[C@]4(CC)CC=CN5CC[C@]31[C@@H]54)C2 | 0.3 | 1 | T/C (P388 [5]): 124%; T/C (P388 [7]): 102%
CCSc1ccc2[nH]c3c(c2c1)CCN1C[C@H](C[C@@](O)(CC)C1)C[C@]3(C(=O)OC)c1cc2c(cc1OC)N(C=O)[C@H]1[C@@](O)(C(=O)OC)[C@H](OC(C)=O)[C@]3(CC)CC=CN4CC[C@]21[C@@H]43 | 6 | 8 | T/C (P388 [2]): 107%; T/C (P388 [4]): 105%
C#Cc1ccc2[nH]c3c(c2c1)CCN1C[C@H](C[C@@](O)(CC)C1)C[C@]3(C(=O)OC)c1cc2c(cc1OC)N(C)[C@H]1[C@@](O)(C(=O)OC)[C@H](OC(C)=O)[C@]3(CC)CC=CN4CC[C@]21[C@@H]43 | 20 | 5 | –
CC[C@]1(O)C[C@H]2CN(CCc3c([nH]c4ccc(-c5nccs5)cc34)[C@@](C(=O)OC)(c3cc4c(cc3OC)N(C)[C@H]3[C@@](O)(C(=O)OC)[C@H](OC(C)=O)[C@]5(CC)CC=CN6CC[C@]43[C@@H]65)C2)C1 | 200 | 100 | –
CCc1ccc2[nH]c3c(c2c1)CCN1C[C@H](C[C@@](O)(CC)C1)C[C@]3(C(=O)OC)c1cc2c(cc1OC)N(C=O)[C@H]1[C@@](O)(C(=O)OC)[C@H](OC(C)=O)[C@]3(CC)CC=CN4CC[C@]21[C@@H]43 | 5 | 10 | –
CCC1=C[C@H]2CN(C1)Cc1c([nH]c3ccc(C(=O)OC)cc13)[C@@](C(=O)OC)(c1cc3c(cc1OC)N(C)[C@H]1[C@@](O)(C(=O)OC)[C@H](OC(C)=O)[C@]4(CC)CC=CN5CC[C@]31[C@@H]54)C2 | 30 | 50 | –
CC[C@]1(O)C[C@H]2CN(CCc3c([nH]c4ccc(C(C)=O)cc34)[C@@](C(=O)OC)(c3cc4c(cc3OC)N(C)[C@H]3[C@@](O)(C(=O)OC)[C@H](OC(C)=O)[C@]5(CC)CC=CN6CC[C@]43[C@@H]65)C2)C1 | 200 | 100 | –
CCC1=C[C@H]2CN(C1)Cc1c([nH]c3ccc(-c4ccccc4)cc13)[C@@](C(=O)OC)(c1cc3c(cc1OC)N(C)[C@H]1[C@@](O)(C(=O)OC)[C@H](OC(C)=O)[C@]4(CC)CC=CN5CC[C@]31[C@@H]54)C2 | 70 | 300 | –
